Broadly, the solubility (kinetic) is the concentration staying in solution when a stock, usually in DMSO, is diluted into the medium.

Converted amounts (≈) assume the structure as drawn. Bounds are passed on as bounds.

The conditions of the series: buffer; pH 7.4; 200.0 µM.
In turn, `Cc1cccc(C(=O)NCC(=O)OCC(=O)N2CCCCC2)c1` returned a kinetic solubility of 46 µg/mL (≈ 144 µM).

Consider `COc1nc(C)cc(C)c1S(=O)(=O)c1ccccc1`, for which the solubility (kinetic) worked out at 41.3 µg/mL (≈ 149 µM).

For `CCN1C(=O)CSC1=Nc1ccc(C(=O)O)cc1`, the solubility (kinetic) came out at 39 µg/mL (≈ 148 µM).

Turning to `CC(C)n1c(O)c(C=NCc2cccnc2)c(=O)[nH]c1=S`, the kinetic solubility was above 45.7 µg/mL.

Molecule `CC(=O)Nc1ccc(NS(=O)(=O)c2ccc(C)cc2)cc1[N+](=O)[O-]` had a solubility (kinetic) above 52.4 µg/mL.

Molecule `CCOc1ccc(C2NC(=S)NC3=C2CCc2ccccc23)cc1` (stereo unspecified) returned a kinetic solubility of 10.9 µg/mL (≈ 32.4 µM).

As for `COc1ccc(S(=O)(=O)N2CCCCC2)cc1NS(=O)(=O)c1ccccc1`, the solubility (kinetic) came to 4.3 µg/mL (≈ 10.5 µM). This solubility kinetic lies about 2.5-fold lower than the previous one.

With `Cc1ccc(OCc2nc(-c3ccccc3)no2)cc1`, the kinetic solubility turned out to be 0.4 µg/mL (≈ 1.5 µM).

Turning to `C=Cc1ccc(C(=O)NC2CCCN(Cc3ccccc3F)C2)cc1` (stereo unspecified), the solubility (kinetic) was below 0.4 µg/mL.

The molecule `Cc1cc(C)n(-c2cccc(C(=O)O)c2)n1` showed a solubility (kinetic) above 32.4 µg/mL.

In turn, `O=[N+]([O-])c1cccnc1NCCc1c[nH]c2ccccc12` yielded a kinetic solubility of 0.3 µg/mL (≈ 1.06 µM).

In turn, `CC(NC(=O)/C(C#N)=C/c1cccs1)c1ccccc1` (stereo unspecified) had a kinetic solubility of 3.6 µg/mL (≈ 12.7 µM).

Turning to `O=C(O)CC(NC(=O)c1ccco1)c1ccco1` (stereo unspecified), the kinetic solubility was above 37.4 µg/mL.

On to `Cc1ccc2c(CN(C)Cc3cccc(F)c3)cc(=O)oc2c1`, for which the solubility (kinetic) was 2 µg/mL (≈ 6.42 µM).

For the molecule `CCC(=O)NC1OC(CO)C(O)C(O)C1O` (stereo unspecified), the solubility (kinetic) was above 35.3 µg/mL.

Molecule `CC(C)N=C(Nc1cccnc1)c1ccccc1` yielded a kinetic solubility above 35.9 µg/mL.

For `NC(=O)c1cc(S(=O)(=O)NCc2cccs2)cs1`, the kinetic solubility was found to be 43.4 µg/mL (≈ 144 µM).

For the molecule `CC(NC(=O)c1cc(-c2ccccc2)nc2ccccc12)C1CCCO1` (stereo unspecified), the solubility (kinetic) is above 52 µg/mL.

The molecule `CC1CCCC(C)N1C(=O)CN1c2cccc3cccc(c23)S1(=O)=O` (stereo unspecified) registered a solubility (kinetic) of 6.7 µg/mL (≈ 18.7 µM).

Regarding `CN(C)c1ccc(/C=C/c2cccc[n+]2[O-])cc1`, the kinetic solubility is above 36 µg/mL.

`Cc1cc(NS(=O)(=O)c2ccc(NC(=O)c3ccccc3F)cc2)no1` showed a kinetic solubility above 56.3 µg/mL.

With `O=C(NN1CCOCC1)c1cccc(Cl)c1`, the kinetic solubility was above 36.1 µg/mL.

In turn, `CCCC12CN3CC(C)(CN(C1)C3c1ccc([N+](=O)[O-])o1)C2=O` (stereo unspecified) returned a kinetic solubility above 47.9 µg/mL.

Consider `CC(NC(=O)COC(=O)c1cccc(S(=O)(=O)N2CCCC2)c1)c1ccccc1` (stereo unspecified), for which the solubility (kinetic) came to 11.8 µg/mL (≈ 28.3 µM).

For the molecule `Cc1c(C#N)c(NC(=O)C(C)C)n(Cc2ccccc2)c1C`, the kinetic solubility amounted to 8.1 µg/mL (≈ 27.4 µM). This solubility kinetic and that of the molecule before are within 1.5-fold of each other.

Molecule `CCCCNC(=O)c1cc2cc(CC)ccc2[nH]1` yielded a solubility (kinetic) of 1.9 µg/mL (≈ 7.78 µM).

`CC(=O)c1ccc(S(=O)(=O)N2CCN(C)CC2)cc1` showed a kinetic solubility above 42.4 µg/mL.

Take `CC(=O)NCc1ccc(-c2csc(NC(=O)CCc3nc4ccccc4c(=O)[nH]3)n2)s1`: the kinetic solubility worked out at 7.3 µg/mL (≈ 16.1 µM).

`O=[N+]([O-])c1cc(-n2cccc2)ccc1N1CCOCC1`: the solubility (kinetic) was 31.6 µg/mL (≈ 116 µM).

`Cc1ccc(O)c(CNc2cnc3ccccc3c2)c1` gave a kinetic solubility of 18.1 µg/mL (≈ 68.5 µM).

In turn, `CCCOc1ccc(N/C=C/C(=O)c2ccc(OC)c(OC)c2)cc1` displayed a solubility (kinetic) below 0.7 µg/mL.

`C(=C\c1ccccc1)/CN1CCN(Cc2ccc3c(c2)OCO3)CC1` had a kinetic solubility of 43 µg/mL (≈ 128 µM).

With `Cc1ccccc1CNC(=O)COc1ccccc1`, the solubility (kinetic) is above 38.3 µg/mL.

Molecule `O=[N+]([O-])c1cccc(/C=C/c2ccc3cccc(O)c3n2)c1` came in with a kinetic solubility below 0.3 µg/mL.

Consider `CCN(CC(=O)NCc1cccs1)C(=O)c1ccc(C)o1`, for which the kinetic solubility is above 46 µg/mL.

Turning to `COc1ccc([N+](=O)[O-])c(OC)c1C(=O)NC(=O)Nc1nc(C)nc(C)n1`, the kinetic solubility is above 56.4 µg/mL.

`Cc1ccc(NC(=O)COCC(=O)Nc2ccc(F)cc2)cc1` returned a kinetic solubility of 37.3 µg/mL (≈ 118 µM).

`COc1cc(CNCc2ccco2)cc(OC)c1O.Cl`: the kinetic solubility worked out at 41.4 µg/mL.

With `Nc1nnc(SCC(=O)NC2CCCC2)s1`, the solubility (kinetic) was above 38.8 µg/mL.

`COc1cccc(CNC(=S)NC2CC2)c1` gave a solubility (kinetic) of 35.2 µg/mL (≈ 149 µM).

For the molecule `O=C1CN(C(=O)/C=C/c2ccccc2)CCN1`, the kinetic solubility is above 34.5 µg/mL.

Take `COc1ccc([C@@H](O)[C@@H](N)c2ccccc2)cc1.Cl`: the kinetic solubility came to 41.7 µg/mL.

Regarding `COc1ccc(NS(=O)(=O)c2ccc(C(=O)N(C)Cc3ccc(C)o3)cc2)cc1`, the solubility (kinetic) came to 61.1 µg/mL (≈ 147 µM).

`CCOC(=O)c1cn(CC)c2c(ccc3ccccc32)c1=O` gave a kinetic solubility below 0.6 µg/mL.

Molecule `COc1cc(C2NC(=O)c3ccccc3O2)ccc1OC(C)C` (stereo unspecified) had a solubility (kinetic) of 5.9 µg/mL (≈ 18.8 µM).

Regarding `O=C(NC1CC1)c1sc2ccccc2c1Cl`, the solubility (kinetic) turned out to be 1.6 µg/mL (≈ 6.36 µM). Against the preceding molecule, the solubility kinetic is about 3.7-fold lower.

For the molecule `O=C(C1CCN(S(=O)(=O)c2c(Cl)cccc2Cl)CC1)N1CCCC1`, the solubility (kinetic) was above 58.7 µg/mL.

For `CCCC(=O)Nc1cc2c3c(c1)CCN3C(=O)CC2`, the solubility (kinetic) was above 38.7 µg/mL.

The molecule `CN1CCN(C(=S)c2ccc(-c3cccc([N+](=O)[O-])c3)o2)CC1` registered a kinetic solubility of 43.3 µg/mL (≈ 131 µM).

Molecule `CN(C)c1ccc(S(=O)(=O)N2CCC(Cc3ccccc3)CC2)cn1` had a kinetic solubility of 2 µg/mL (≈ 5.56 µM).

In turn, `CNC(=O)c1cc(C(=O)c2ccc(F)cc2Cl)c[nH]1` registered a solubility (kinetic) of 14.1 µg/mL (≈ 50.2 µM).
